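Each compound was tested at five concentrations against cells in 96-well plates for 48 hours. TGI marks complete inhibition of growth.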
Assays:
Experiment in all cases: DTP human tumour cell line panel, 48 h
786-0 renal = system: 786-0 renal
A498 renal = system: A498 renal
A549 NSCLC = system: A549 NSCLC
ACHN renal = system: ACHN renal
BT-549 breast = system: BT-549 breast
CAKI-1 renal = system: CAKI-1 renal
CCRF-CEM leukemia = system: CCRF-CEM leukemia
COLO 205 colon = system: COLO 205 colon
DU-145 prostate = system: DU-145 prostate
EKVX NSCLC = system: EKVX NSCLC
HCC-2998 colon = system: HCC-2998 colon
HCT-116 colon = system: HCT-116 colon
HCT-15 colon = system: HCT-15 colon
HOP-62 NSCLC = system: HOP-62 NSCLC
HOP-92 NSCLC = system: HOP-92 NSCLC
HS 578T breast = system: HS 578T breast
HT29 colon = system: HT29 colon
K-562 leukemia = system: K-562 leukemia
KM12 colon = system: KM12 colon
LOX IMVI melanoma = system: LOX IMVI melanoma
M14 melanoma = system: M14 melanoma
MALME-3M melanoma = system: MALME-3M melanoma
MCF7 breast = system: MCF7 breast
MDA-MB-231 breast = system: MDA-MB-231 breast
MDA-MB-435 = system: MDA-MB-435
MDA-N = system: MDA-N
MOLT-4 leukemia = system: MOLT-4 leukemia
NCI-H226 lung = system: NCI-H226 lung
NCI-H23 lung = system: NCI-H23 lung
NCI-H460 lung = system: NCI-H460 lung
NCI-H522 lung = system: NCI-H522 lung
NCI/ADR-RES ovarian = system: NCI/ADR-RES ovarian
OVCAR-3 ovarian = system: OVCAR-3 ovarian
OVCAR-4 ovarian = system: OVCAR-4 ovarian
OVCAR-5 ovarian = system: OVCAR-5 ovarian
OVCAR-8 ovarian = system: OVCAR-8 ovarian
PC-3 prostate = system: PC-3 prostate
RPMI-8226 leukemia = system: RPMI-8226 leukemia
RXF 393 renal = system: RXF 393 renal
SF-268 CNS = system: SF-268 CNS
SF-295 CNS = system: SF-295 CNS
SF-539 CNS = system: SF-539 CNS
SK-MEL-2 melanoma = system: SK-MEL-2 melanoma
SK-MEL-28 melanoma = system: SK-MEL-28 melanoma
SK-MEL-5 melanoma = system: SK-MEL-5 melanoma
SK-OV-3 ovarian = system: SK-OV-3 ovarian
SN12C renal = system: SN12C renal
SNB-19 CNS = system: SNB-19 CNS
SNB-75 CNS = system: SNB-75 CNS
SR leukemia = system: SR leukemia
SW-620 colon = system: SW-620 colon
T-47D breast = system: T-47D breast
TK-10 renal = system: TK-10 renal
U251 CNS = system: U251 CNS
UACC-257 melanoma = system: UACC-257 melanoma
UACC-62 melanoma = system: UACC-62 melanoma
UO-31 renal = system: UO-31 renal
HL-60(TB) leukemia = system: HL-60(TB) leukemia

For `c1ccc(Nc2nn3c(CCCCCCCCc4nnc5sc(Nc6ccccc6)nn45)nnc3s2)cc1`, the TGI (786-0 renal) was 79.5 µM, the TGI (A498 renal) was over 100 µM and the TGI (A549 NSCLC) was over 100 µM. The TGI (ACHN renal) was over 100 µM, the TGI (BT-549 breast) was over 100 µM and the TGI (CAKI-1 renal) was over 100 µM. For the same compound, the TGI (CCRF-CEM leukemia) was 63.9 µM, the TGI (COLO 205 colon) was 42.8 µM and the TGI (DU-145 prostate) was over 100 µM. For the same compound, the TGI (EKVX NSCLC) was over 100 µM, the TGI (HCC-2998 colon) was over 100 µM and the TGI (HCT-116 colon) was over 100 µM. For the same compound, the TGI (HCT-15 colon) was over 100 µM, the TGI (HOP-62 NSCLC) was over 100 µM and the TGI (HOP-92 NSCLC) was over 100 µM. It also gave a TGI (HS 578T breast) of over 100 µM, a TGI (HT29 colon) of 77.5 µM and a TGI (K-562 leukemia) of 37.6 µM. For the same compound, the TGI (KM12 colon) was over 100 µM, the TGI (LOX IMVI melanoma) was over 100 µM and the TGI (M14 melanoma) was 35.2 µM. It also gave a TGI (MALME-3M melanoma) of over 100 µM, a TGI (MCF7 breast) of 85.7 µM and a TGI (MDA-MB-231 breast) of over 100 µM. The TGI (MDA-MB-435) was 84 µM, the TGI (MDA-N) was 46.6 µM and the TGI (MOLT-4 leukemia) was 41.7 µM. It also gave a TGI (NCI-H226 lung) of over 100 µM, a TGI (NCI-H23 lung) of over 100 µM and a TGI (NCI-H460 lung) of over 100 µM. It also gave a TGI (NCI-H522 lung) of 81.2 µM, a TGI (NCI/ADR-RES ovarian) of over 100 µM and a TGI (OVCAR-3 ovarian) of over 100 µM. For the same compound, the TGI (OVCAR-4 ovarian) was over 100 µM, the TGI (OVCAR-5 ovarian) was over 100 µM and the TGI (OVCAR-8 ovarian) was over 100 µM. It also gave a TGI (PC-3 prostate) of over 100 µM, a TGI (RPMI-8226 leukemia) of over 100 µM and a TGI (RXF 393 renal) of over 100 µM. It also gave a TGI (SF-268 CNS) of over 100 µM, a TGI (SF-295 CNS) of 71.8 µM and a TGI (SF-539 CNS) of over 100 µM. It also gave a TGI (SK-MEL-2 melanoma) of over 100 µM, a TGI (SK-MEL-28 melanoma) of over 100 µM and a TGI (SK-MEL-5 melanoma) of 24.6 µM. It also gave a TGI (SK-OV-3 ovarian) of over 100 µM, a TGI (SN12C renal) of over 100 µM and a TGI (SNB-19 CNS) of over 100 µM. It also gave a TGI (SNB-75 CNS) of 75.5 µM, a TGI (SR leukemia) of 38.3 µM and a TGI (SW-620 colon) of over 100 µM. For the same compound, the TGI (T-47D breast) was 67.1 µM, the TGI (TK-10 renal) was over 100 µM and the TGI (U251 CNS) was over 100 µM. The TGI (UACC-257 melanoma) was over 100 µM, the TGI (UACC-62 melanoma) was over 100 µM and the TGI (UO-31 renal) was 69.9 µM.

`O=C1CSC(c2ccc([N+](=O)[O-])cc2)N1c1ccc(-c2ccc(-n3c(-c4ccccc4)nc4ccccc4c3=O)cc2)cc1` (stereo not drawn) showed a TGI (786-0 renal) of over 100 µM, a TGI (A498 renal) of over 100 µM and a TGI (A549 NSCLC) of over 100 µM. For the same compound, the TGI (ACHN renal) was over 100 µM, the TGI (BT-549 breast) was over 100 µM and the TGI (CAKI-1 renal) was over 100 µM. The TGI (CCRF-CEM leukemia) was over 100 µM, the TGI (COLO 205 colon) was over 100 µM and the TGI (DU-145 prostate) was over 100 µM. The TGI (EKVX NSCLC) was over 100 µM, the TGI (HCC-2998 colon) was over 100 µM and the TGI (HCT-116 colon) was over 100 µM. It also gave a TGI (HCT-15 colon) of over 100 µM, a TGI (HL-60(TB) leukemia) of over 100 µM and a TGI (HOP-62 NSCLC) of over 100 µM. For the same compound, the TGI (HOP-92 NSCLC) was over 100 µM, the TGI (HS 578T breast) was over 100 µM and the TGI (HT29 colon) was over 100 µM. It also gave a TGI (K-562 leukemia) of over 100 µM, a TGI (KM12 colon) of over 100 µM and a TGI (LOX IMVI melanoma) of over 100 µM. For the same compound, the TGI (M14 melanoma) was over 100 µM, the TGI (MALME-3M melanoma) was over 100 µM and the TGI (MCF7 breast) was over 100 µM. The TGI (MDA-MB-231 breast) was over 100 µM, the TGI (MDA-MB-435) was over 100 µM and the TGI (MDA-N) was over 100 µM. For the same compound, the TGI (MOLT-4 leukemia) was over 100 µM, the TGI (NCI-H226 lung) was over 100 µM and the TGI (NCI-H23 lung) was over 100 µM. For the same compound, the TGI (NCI-H460 lung) was over 100 µM, the TGI (NCI-H522 lung) was over 100 µM and the TGI (NCI/ADR-RES ovarian) was over 100 µM. The TGI (OVCAR-3 ovarian) was over 100 µM, the TGI (OVCAR-4 ovarian) was over 100 µM and the TGI (OVCAR-5 ovarian) was over 100 µM. For the same compound, the TGI (OVCAR-8 ovarian) was over 100 µM, the TGI (PC-3 prostate) was over 100 µM and the TGI (RPMI-8226 leukemia) was over 100 µM. It also gave a TGI (SF-268 CNS) of over 100 µM, a TGI (SF-295 CNS) of over 100 µM and a TGI (SF-539 CNS) of over 100 µM. The TGI (SK-MEL-2 melanoma) was over 100 µM, the TGI (SK-MEL-28 melanoma) was over 100 µM and the TGI (SK-MEL-5 melanoma) was 62 µM. It also gave a TGI (SK-OV-3 ovarian) of over 100 µM, a TGI (SN12C renal) of over 100 µM and a TGI (SNB-19 CNS) of over 100 µM. It also gave a TGI (SR leukemia) of 87 µM, a TGI (SW-620 colon) of over 100 µM and a TGI (T-47D breast) of over 100 µM. It also gave a TGI (TK-10 renal) of over 100 µM, a TGI (U251 CNS) of over 100 µM and a TGI (UACC-257 melanoma) of over 100 µM. It also gave a TGI (UACC-62 melanoma) of over 100 µM and a TGI (UO-31 renal) of over 100 µM.

Source: PubChem BioAssay (NCI)
